Patent publication US20220153746A1, “NITROGEN OXIDE-DONATING PDE-5 AND/OR PDE-6 INHIBITOR COMPOUNDS, AND USES THEREOF” (ILDONG PHARMACEUTICAL CO., LTD., priority 2020, published 2022)
Read-outs that look alike come from different tables or passages of the source.

Experiments:
human PDE-5A1 = human PDE-5A1 (Homo sapiens, UniProt O76074); experiment: Human PDE-5A1 inhibition assay (fluorescence polarization, FAM-cGMP); format: biochemical
human PDE-6C = human PDE-6C (Homo sapiens, UniProt P51160); experiment: Human PDE-6C inhibition assay (fluorescence polarization, FAM-cGMP); format: biochemical
Chain of human PDE-6C (P51160 whole entry): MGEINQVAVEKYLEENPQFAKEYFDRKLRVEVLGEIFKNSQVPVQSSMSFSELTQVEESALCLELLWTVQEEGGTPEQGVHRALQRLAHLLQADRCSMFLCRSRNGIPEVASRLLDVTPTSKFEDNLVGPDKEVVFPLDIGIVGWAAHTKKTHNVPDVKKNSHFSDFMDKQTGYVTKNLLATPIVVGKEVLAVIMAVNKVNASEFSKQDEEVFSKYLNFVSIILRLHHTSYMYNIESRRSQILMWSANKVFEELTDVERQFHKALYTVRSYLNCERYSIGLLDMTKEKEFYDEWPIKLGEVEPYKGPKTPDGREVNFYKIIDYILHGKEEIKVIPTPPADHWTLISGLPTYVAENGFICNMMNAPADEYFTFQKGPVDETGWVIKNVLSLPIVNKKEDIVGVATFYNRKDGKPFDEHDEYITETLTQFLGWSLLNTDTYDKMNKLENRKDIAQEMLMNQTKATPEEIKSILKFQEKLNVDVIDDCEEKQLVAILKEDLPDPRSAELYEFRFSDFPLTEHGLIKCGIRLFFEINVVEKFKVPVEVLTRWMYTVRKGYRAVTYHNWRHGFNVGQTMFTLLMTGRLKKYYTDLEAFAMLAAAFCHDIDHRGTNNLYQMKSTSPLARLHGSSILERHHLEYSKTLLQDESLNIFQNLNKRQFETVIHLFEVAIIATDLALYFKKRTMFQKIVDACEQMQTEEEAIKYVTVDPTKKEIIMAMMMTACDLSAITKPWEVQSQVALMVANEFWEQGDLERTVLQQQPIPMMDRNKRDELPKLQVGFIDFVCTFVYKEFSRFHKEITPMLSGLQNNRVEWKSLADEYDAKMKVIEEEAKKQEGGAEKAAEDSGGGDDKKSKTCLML

| IC50 (human PDE-5A1; read-out: IC50 (μM) PDE5A1) | Structure (SMILES) | further results |
| --- | --- | --- |
| > 0.1 µM | CCCc1nn(C)c2c(=O)[nH]c(-c3cc(S(=O)(=O)N4CC(CN)C4)ccc3OCC)nc12 [Compound 5, 5-(5-((3-(aminomethyl)azetidin-1-yl)sulfonyl)-2-ethoxyphenyl)-1-methyl-3-propyl-1,6-dihydro-7H-pyrazolo[4,3-d] pyrimidin-7-one] | IC50 (human PDE-6C; read-out: IC50 (μM) PDE6C): 0.01 to 0.1 µM |
| < 0.01 µM | CCCc1nc(C)c2c(=O)[nH]c(-c3cc(S(=O)(=O)NC4CN(CCO)C4)ccc3OCC)nn12 [Compound 46, 4-ethoxy-N-(1-(2-hydroxyethyl)azetidin-3-yl)-3-(5-methyl-4-oxo-7-propyl-3,4-dihydroimidazo[5,1-f][1,2,4]triazin-2-yl)benzenesulfonamide] |  |
| < 0.01 µM | CCCc1nn(C)c2c(=O)[nH]c(-c3cc(S(=O)(=O)N4CC(N5CC(CCO)C5)C4)ccc3OCC)nc12 [Compound 33, 5-(2-ethoxy-5-((3-(2-hydroxyethyl)-[1,3′-biazetidin]-1′-yl)sulfonyl)phenyl)-1-methyl-3-propyl-1,6-dihydro-7H-pyrazolo[4,3-d]pyrimidin-7-one] | IC50 (human PDE-6C; read-out: IC50 (μM) PDE6C): < 0.01 µM |
| < 0.01 µM | CCCc1nn(C)c2c(=O)[nH]c(-c3cc(S(=O)(=O)N4CC(N(C)CCCO)C4)ccc3OCC)nc12 [Compound 13, 5-(2-ethoxy-5-((3-((3-hydroxypropyl)(methyl)amino)azetidin-1-yl)sulfonyl)phenyl)-1-methyl-3-propyl-1,6-dihydro-7H-pyrazolo[4,3-d]pyrimidin-7-one] | IC50 (human PDE-6C; read-out: IC50 (μM) PDE6C): 0.01 to 0.1 µM |
| 0.01 to 0.1 µM | CCCc1nn(C)c2c(=O)[nH]c(-c3cc(S(=O)(=O)N4CC(N(C)CCCO[N+](=O)[O-])C4)ccc3OCC)nc12 [Compound 24, 3-((1-((4-ethoxy-3-(1-methyl-7-oxo-3-propyl-6,7-dihydro-1H-pyrazolo[4,3-d]pyrimidin-5-yl)phenyl)sulfonyl)azetidin-3-yl)(methyl)amino)propyl nitrate] | IC50 (human PDE-6C; read-out: IC50 (μM) PDE6C): < 0.01 µM |
|  | CCCc1nn(C)c2c(=O)[nH]c(-c3cc(S(=O)(=O)N4CC(N(CCCO[N+](=O)[O-])CCCO[N+](=O)[O-])C4)ccc3OCC)nc12 [Compound 38, ((1-((4-ethoxy-3-(1-methyl-7-oxo-3-propyl-6,7-dihydro-1H-pyrazolo[4,3-d]pyrimidin-5-yl)phenyl)sulfonyl)azetidin-3-yl)azanediyl)bis(propane-3,1-diyl) dinitrate] | IC50 (human PDE-5A1): 0.01 to 0.1 µM; IC50 (human PDE-6C): 0.01 to 0.1 µM |
|  | CCCc1nn(C)c2c(=O)[nH]c(-c3cc(S(=O)(=O)N4CC(CCCOC(=O)CCC(CO[N+](=O)[O-])O[N+](=O)[O-])C4)ccc3OCC)nc12 (centres unmarked) [Compound 73, 3-(1-((4-ethoxy-3-(1-methyl-7-oxo-3-propyl-6,7-dihydro-1H-pyrazolo[4,3-d]pyrimidin-5-yl)phenyl)sulfonyl)azetidin-3-yl)propyl 4,5-bis(nitrooxy)pentanoate] | IC50 (human PDE-5A1): < 0.01 µM; IC50 (human PDE-6C): < 0.01 µM |
| < 0.01 µM | CCCc1nc(C)c2c(=O)[nH]c(-c3cc(S(=O)(=O)N4CC(CCO[N+](=O)[O-])C4)ccc3OCC)nn12 [Compound 57, 2-(1-((4-ethoxy-3-(5-methyl-4-oxo-7-propyl-3,4-dihydroimidazo[5,1-f][1,2,4]triazin-2-yl)phenyl)sulfonyl)azetidin-3-yl) ethyl nitrate] |  |
| < 0.01 µM | CCCc1nc(C)c2c(=O)[nH]c(-c3cc(S(=O)(=O)N4CC(NCCCO)C4)ccc3OCC)nn12 [Compound 50, 2-(2-ethoxy-5-((3-((3-hydroxypropyl)amino)azetidin-1-yl)sulfonyl)phenyl)-5-methyl-7-propylimidazo[5,1-f][1,2,4]triazin-4(3H)-one] |  |
| < 0.01 µM | CCCc1nc(C)c2c(=O)[nH]c(-c3cc(S(=O)(=O)N4CC(CO)C4)ccc3OCC)nn12 [Compound 42, 2-(2-ethoxy-5-((3-(hydroxymethyl)azetidin-1-yl)sulfonyl)phenyl)-5-methyl-7-propylimidazo[5,1-f][1,2,4]triazin-4(3H)-one] |  |
| < 0.01 µM | CCCc1nc(C)c2c(=O)[nH]c(-c3cc(S(=O)(=O)N4CC(O)C4)ccc3OCC)nn12 [Compound 41, 2-(2-ethoxy-5-((3-hydroxyazetidin-1-yl)sulfonyl)phenyl)-5-methyl-7-propylimidazo[5,1-f][1,2,4]triazin-4(3H)-one] |  |
| < 0.01 µM | CCCc1nc(C)c2c(=O)[nH]c(-c3cc(S(=O)(=O)NC4CN(CCCO)C4)ccc3OCC)nn12 [Compound 47, 4-ethoxy-N-(1-(3-hydroxypropyl)azetidin-3-yl)-3-(5-methyl-4-oxo-7-propyl-3,4-dihydroimidazo[5,1-f][1,2,4]triazin-2-yl)benzenesulfonamide] |  |
| < 0.01 µM | CCCc1nc(C)c2c(=O)[nH]c(-c3cc(S(=O)(=O)N4CC(O[N+](=O)[O-])C4)ccc3OCC)nn12 [Compound 55, 1-((4-ethoxy-3-(5-methyl-4-oxo-7-propyl-3,4-dihydroimidazo[5,1-f][1,2,4]triazin-2-yl)phenyl)sulfonyl)azetidin-3-yl nitrate] |  |
| < 0.01 µM | CCCc1nc(C)c2c(=O)[nH]c(-c3cc(S(=O)(=O)N4CC(N(C)CCO)C4)ccc3OCC)nn12 [Compound 52, 2-(2-ethoxy-5-((3-((2-hydroxyethyl)(methyl)amino)azetidin-1-yl)sulfonyl)phenyl)-5-methyl-7-propylimidazo[5,1-f][1,2,4]triazin-4(3H)-one] |  |
| < 0.01 µM | CCCc1nc(C)c2c(=O)[nH]c(-c3cc(S(=O)(=O)NC4CN(CCCO[N+](=O)[O-])C4)ccc3OCC)nn12 [Compound 60, 3-(3-((4-ethoxy-3-(5-methyl-4-oxo-7-propyl-3,4-dihydroimidazo[5,1-f][1,2,4]triazin-2-yl)phenyl)sulfonamido)azetidin-1-yl)propyl nitrate] |  |
| < 0.01 µM | CCCc1nc(C)c2c(=O)[nH]c(-c3cc(S(=O)(=O)N4CC(NCCCO[N+](=O)[O-])C4)ccc3OCC)nn12 [Compound 62, 3-((1-((4-ethoxy-3-(5-methyl-4-oxo-7-propyl-3,4-dihydroimidazo[5,1-f][1,2,4]triazin-2-yl)phenyl)sulfonyl)azetidin-3-yl)amino)propyl nitrate] |  |
| < 0.01 µM | CCCc1nc(C)c2c(=O)[nH]c(-c3cc(S(=O)(=O)N4CC(CCCO)C4)ccc3OCC)nn12 [Compound 44, 2-(2-ethoxy-5-((3-(3-hydroxypropyl)azetidin-1-yl)sulfonyl)phenyl)-5-methyl-7-propylimidazo[5,1-f][1,2,4]triazin-4(3H)-one] |  |
| < 0.01 µM | CCCc1nc(C)c2c(=O)[nH]c(-c3cc(S(=O)(=O)N4CC(CCO)C4)ccc3OCC)nn12 [Compound 43, 2-(2-ethoxy-5-((3-(2-hydroxyethyl)azetidin-1-yl)sulfonyl)phenyl)-5-methyl-7-propylimidazo[5,1-f][1,2,4]triazin-4(3H)-one] |  |
| < 0.01 µM | CCCc1nc(C)c2c(=O)[nH]c(-c3cc(S(=O)(=O)N4CC(CCCO[N+](=O)[O-])C4)ccc3OCC)nn12 [Compound 58, 3-(1-((4-ethoxy-3-(5-methyl-4-oxo-7-propyl-3,4-dihydroimidazo[5,1-f][1,2,4]triazin-2-yl)phenyl)sulfonyl)azetidin-3-yl) propyl nitrate] |  |
| < 0.01 µM | CCCc1nc(C)c2c(=O)[nH]c(-c3cc(S(=O)(=O)N4CC(N(C)CCO[N+](=O)[O-])C4)ccc3OCC)nn12 [Compound 63, 2-((1-((4-ethoxy-3-(5-methyl-4-oxo-7-propyl-3,4-dihydroimidazo[5,1-f][1,2,4]triazin-2-yl)phenyl)sulfonyl)azetidin-3-yl)(methyl)amino)ethyl nitrate] |  |
| < 0.01 µM | CCCc1nc(C)c2c(=O)[nH]c(-c3cc(S(=O)(=O)N4CC(CO[N+](=O)[O-])C4)ccc3OCC)nn12 [Compound 56, (1-((4-ethoxy-3-(5-methyl-4-oxo-7-propyl-3,4-dihydroimidazo[5,1-f][1,2,4]triazin-2-yl)phenyl)sulfonyl)azetidin-3-yl)methyl nitrate] |  |
| < 0.01 µM | CCCc1nc(C)c2c(=O)[nH]c(-c3cc(S(=O)(=O)N4CC(CN)C4)ccc3OCC)nn12 [Compound 45] |  |
| < 0.01 µM | CCCc1nc(C)c2c(=O)[nH]c(-c3cc(S(=O)(=O)NC4CN(CCO[N+](=O)[O-])C4)ccc3OCC)nn12 [Compound 59, 2-(3-((4-ethoxy-3-(5-methyl-4-oxo-7-propyl-3,4-dihydroimidazo[5,1-f][1,2,4]triazin-2-yl)phenyl)sulfonamido)azetidin-1-yl)ethyl nitrate] |  |
| < 0.01 µM | CCCc1nc(C)c2c(=O)[nH]c(-c3cc(S(=O)(=O)N4CC(N(C)CCCO[N+](=O)[O-])C4)ccc3OCC)nn12 [Compound 64, 3-((1-((4-ethoxy-3-(5-methyl-4-oxo-7-propyl-3,4-dihydroimidazo[5,1-f][1,2,4]triazin-2-yl)phenyl)sulfonyl)azetidin-3-yl)(methyl)amino)propyl nitrate] |  |
| < 0.01 µM | CCCc1nc(C)c2c(=O)[nH]c(-c3cc(S(=O)(=O)N4CC(NCCO)C4)ccc3OCC)nn12 [Compound 49, 2-(2-ethoxy-5-((3-((2-hydroxyethyl)amino)azetidin-1-yl)sulfonyl)phenyl)-5-methyl-7-propylimidazo[5,1-f][1,2,4]triazin-4(3H)-one] |  |
| < 0.01 µM | CCCc1nc(C)c2c(=O)[nH]c(-c3cc(S(=O)(=O)N4CC(N(C)CCCO)C4)ccc3OCC)nn12 [Compound 53, 2-(2-ethoxy-5-((3-((3-hydroxypropyl)(methyl)amino)azetidin-1-yl)sulfonyl)phenyl)-5-methyl-7-propylimidazo[5,1-f][1,2,4]triazin-4(3H)-one] |  |
| < 0.01 µM | CCCc1nc(C)c2c(=O)[nH]c(-c3cc(S(=O)(=O)N4CC(NCCO[N+](=O)[O-])C4)ccc3OCC)nn12 [Compound 61, 2-((1-((4-ethoxy-3-(5-methyl-4-oxo-7-propyl-3,4-dihydroimidazo[5,1-f][1,2,4]triazin-2-yl)phenyl)sulfonyl)azetidin-3-yl)amino)ethyl nitrate] |  |

| Structure (SMILES) | IC50 (human PDE-5A1; read-out: IC50 (μM) PDE5A1) | further results |
| --- | --- | --- |
| CCCc1nn(C)c2c(=O)[nH]c(-c3cc(S(=O)(=O)N4CC(OCCCCO)C4)ccc3OCC)nc12 [Compound 27, 5-(2-ethoxy-5-((3-(4-hydroxybutoxy)azetidin-1-yl)sulfonyl)phenyl)-1-methyl-3-propyl-1,6-dihydro-7H-pyrazolo[4,3-d]pyrimidin-7-one] | 0.01 to 0.1 µM | IC50 (human PDE-6C; read-out: IC50 (μM) PDE6C): < 0.01 µM |
